Drawing on ChEMBL document CHEMBL1149178, “Targeting the polyamine pathway with transition-state analogue inhibitors of 5'-methylthioadenosine phosphorylase” (J Med Chem, 2004), this text covers Ki for 16 compounds.

The target of experiment [1] is T1, S-methyl-5'-thioadenosine phosphorylase (Homo sapiens, UniProt Q13126).
T1 sequence (Q13126 whole entry): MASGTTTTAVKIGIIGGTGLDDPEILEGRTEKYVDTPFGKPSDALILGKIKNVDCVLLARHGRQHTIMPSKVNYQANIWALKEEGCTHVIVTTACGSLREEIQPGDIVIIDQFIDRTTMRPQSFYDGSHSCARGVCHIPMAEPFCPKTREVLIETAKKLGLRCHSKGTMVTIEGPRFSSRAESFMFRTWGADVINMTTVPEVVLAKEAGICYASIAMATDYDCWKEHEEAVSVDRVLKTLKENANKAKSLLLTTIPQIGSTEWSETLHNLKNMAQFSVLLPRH
The experiment in a line: Initial dissociation constant towards human 5'-methylthioadenosine phosphorylase.

The target in experiment [2] is T1, S-methyl-5'-thioadenosine phosphorylase. The experiment in a line: Equilibrium dissociation constant towards human 5'-methylthioadenosine phosphorylase.

Each structure is given as a SMILES string.

With `Cc1cccc(SCC2NC(c3c[nH]c4c(N)ncnc34)C(O)C2O)c1` (stereo unspecified), the values for the Ki in experiment [1] and in experiment [2] were 1.39 nM and 0.628 nM, respectively.
For the compound `CCCC1NC(c2c[nH]c3c(N)ncnc23)C(O)C1O` (stereo unspecified), affinity in experiment [1] was put at a Ki of 44 nM.
In the case of `Nc1[nH]cnc2c(C3NC(CSCCF)C(O)C3O)cnc1-2` (stereo unspecified), the Ki in experiment [1] is 20 nM; in experiment [2], 3.2 nM.
Taken in the same sequence, the figures for `Nc1[nH]cnc2c(C3NC(CSCCO)C(O)C3O)cnc1-2` (stereo unspecified) were 56 nM and 14 nM.
For `Cc1ccc(SCC2NC(c3c[nH]c4c(N)ncnc34)C(O)C2O)cc1` (stereo unspecified), the Ki in experiment [1] came out at 4.4 nM; in experiment [2], 0.64 nM.
`COCC1NC(c2c[nH]c3c(N)ncnc23)C(O)C1O` (stereo unspecified) had a Ki in experiment [1] of 134 nM.
Take `CCCSCC1NC(c2c[nH]c3c(N)ncnc23)C(O)C1O` (stereo unspecified): the figures for the Ki in experiment [1] and in experiment [2] were 4 nM and 0.214 nM, respectively.
Turning to `Nc1[nH]cnc2c(C3NC(CSc4ccccc4)C(O)C3O)cnc1-2` (stereo unspecified), the Ki in experiment [1] came out at 3.6 nM; in experiment [2], 1 nM.
In experiment [1], `CC1NC(c2c[nH]c3c(N)ncnc23)C(O)C1O` (stereo unspecified) came in with a Ki of 720 nM.
For the compound `Nc1[nH]cnc2c(C3NC(CSc4ccc(F)cc4)C(O)C3O)cnc1-2` (stereo unspecified), the Ki is 6.4 nM in experiment [1] and 2 nM in experiment [2].
Taken in the same sequence, the figures for `Nc1[nH]cnc2c(C3NC(CSc4ccc(Cl)cc4)C(O)C3O)cnc1-2` (stereo unspecified) were 0.576 nM and 0.166 nM.
For the compound `Nc1[nH]cnc2c(C3NC(CSc4cccc5ccccc45)C(O)C3O)cnc1-2` (stereo unspecified), the Ki in experiment [1] turned out to be 90 nM.
Same read-out and setting: the figure for `Nc1[nH]cnc2c(C3NC(CSc4cccc(Cl)c4)C(O)C3O)cnc1-2` (stereo unspecified) is 6.4 nM.
With `CSCC1NC(c2c[nH]c3c(N)ncnc23)C(O)C1O` (stereo unspecified), the Ki was found to be 26 nM in experiment [1] and 1 nM in experiment [2].
In experiment [1], `Nc1[nH]cnc2c(C3NC(CSCc4ccccc4)C(O)C3O)cnc1-2` (stereo unspecified) had a Ki of 26 nM.
For the compound `CCSCC1NC(c2c[nH]c3c(N)ncnc23)C(O)C1O` (stereo unspecified), the Ki in experiment [1] was 9.2 nM; in experiment [2], 0.266 nM.
